Laboratory results from US9034859B2, “Sulfated oxysterol and oxysterol sulfation by hydroxysterol sulfotransferase promote lipid homeostasis and liver proliferation” (Virginia Commonwealth University, priority 2011, dated 2015).

System: genes related to cell cycle progression
Assay: RTqPCR of cell cycle-related genes in mouse liver after 25HC3S (Example 3)
Format: in vivo, C57BL/6 mice
Details: doses lower than 5 mg/kg, 48 h, dose-dependent
Procedure: PCR assays were performed in 96-well optical reaction plates using the ABI 7500 Fast Real-Time PCR System (Applied Biosystems, Foster City, Calif.). PCR assays were conducted in triplicate wells for each sample. Baseline values of amplification plots were set automatically and threshold values were kept constant to obtain normalized cycle times and linear regression data. The following reaction mixture per well was used: 2×SYBR Green PCR Master Mix (10 ul), primer at the final concentration of 10 uM (1 ul), RNAse-free water (4 ul), cDNA (5 ul, 10 ng). For all experiments the following PCR conditions were used: denaturation at 95° C. for 10 minutes, followed by 40 cycles at 95° C. for 15 seconds, then at 60° C. for 60 seconds. Quantitative normalization of cDNA in each sample was performed using 18S gene as an internal control. Relative quantification was performed using the ΔΔCT method. Suitable primers were used for RtqPCR.

## CC(CCCC(C)(C)O)C1CCC2C3CC=C4CC(OS(=O)(=O)O)CCC4(C)C3CCC12C (stereo not shown) [25HC3S, 25-hydroxycholesterol-3-sulfate]
  hepatic mRNA of cMyc, cyclin A, FoxM1b, CDC25b: significant up-regulation
